Source: patent US20210040153A1, “OLIGOPEPTIDE HAVING DENGUE VIRUS REPLICATION INHIBITION FUNCTION AND APPLICATION THEREOF” (priority 2018, published 2021)

Key:
dengue virus type 3 = experiment: inhibition of replication of dengue virus type 3; format: cell-based
dengue virus type 4 = experiment: inhibition of replication of dengue virus type 4; format: cell-based
DENV 2 = experiment: cell poisoning experiments: inhibition of DENV 2 replication; format: cell-based, dengue virus
NS5 = biological target: T1, NS5 (Dengue virus type 2, UniProt P14340); experiment: affinity to full-length DENV NS5 recombinant protein (phage display peptide library screening); format: binding, DENV-2
T1 construct: His6 (C); made in house; host or cells: E. coli BL21 (DE3), pET 30a/NS5
Protocol: 1) The protein solution is diluted with 0.1 M NaHCO3 to 100 μg/mL. Each time, 0.7 mL of the protein solution is added dropwise to a (φ35 mm polyethylene culture dish, which is gently shaken to soak the dish, which is then coated overnight at 4° C., The coating solution is aspirated and discarded; 2 mL of a blocking solution is added, and left at 4° C. for 2 h; the blocking solution is discarded, and the plate is tap-dried; the plate is washed 6 times with TBST (TBS+0,1%[V/V]Tween−20), and tap-dried each time. […]
3) The eluted phage is added to 10 mL of the host bacterial Tet-LB culture solution (OD600 to 0.5) and then amplified; after 5 hours of culture, the culture solution is collected to purify the phage, and used for the next round of screening after the titer is measured. […]

dengue virus = experiment: inhibition of dengue virus replication (serotype not given); format: cell-based; conditions: serotype not stated
dengue virus type 1 = experiment: inhibition of replication of dengue virus type 1; format: cell-based

KHGHHRH [Lys-His-Gly-His-His-Arg-His]
inhibitory effect on the replication of dengue virus type 3 (dengue virus type 3): significant inhibitory effect | inhibitory effect on the replication of dengue virus type 4 (dengue virus type 4): significant inhibitory effect | inhibitory effect on the replication of DENV 2 virus (DENV 2): significant inhibitory effect | affinity for NS5 (NS5): high specific affinity | inhibitory effect on dengue virus replication (dengue virus): highly effective inhibitory effect | inhibitory effect on dengue virus replication (dengue virus; listed as oligopeptide): effectively inhibit | inhibitory effect on the replication of dengue virus type 1 (dengue virus type 1): significant inhibitory effect
